In patent US20200030355A1, “COMBINATION THERAPY FOR TREATING CANCER” (Epizyme, Inc., priority 2014, published 2020):
Structures can show the parent of a compound that is named as a salt.

Experiments:
Format in all cases: cell-based, human
MOLM-13 (MLL-AF9) = assay: Combination proliferation study with Compound A2 (ATP/CellTiter-Glo, Chou-Talalay combination index)
Experimental: (§1) The acute myelogenous leukemia cell lines MV4-11 (MLL-AF4) and MOLM-13 (MLL-AF9) were obtained from American Type Culture Collection (ATCC; Rockville, Md.) and Deutsche Sammlung von Mikroorganismen and Zellkulturen (DSMZ; Braunschweig, Germany) respectively.
(§2) Studies were performed using MLL-rearranged cell lines in vitro to evaluate the anti-proliferative effect of a combination of two agents together on cell growth. Initial proliferation studies were performed to determine the IC50 of a given compound in each cell line. The cell counts were measured by ATP quantitation using the Promega Cell Titer Glo kit and luminescence values corresponded to the amount of ATP in a given well.
(§3) Compounds were evaluated for synergy in the co-treatment phase by testing the compounds in a concentration range which was bracketed around their IC50 values. The compounds were plated to a 96 well plate in a matrix format (FIG. 3) which includes increasing concentrations of each drug in the combination in a constant ratio, in addition to the effect of each compound alone in the study. Cells were seeded and grown in the log-linear phase for 3 or 7 days in the co-treatment phase. Minimum inhibition (DMSO alone) controls were used in each plate to calculate fraction affected (Fa) of a test well. DMSO concentration was kept at 0.1% v/v.
(§4) The drug combination analysis was performed utilizing the Chou-Talalay method Synergy was determined using the software package Calcusyn by Biosoft. The combination index (CI) is a quantitative term used to describe the level of synergy or antagonism in a given test system. A combination index less than one indicates synergy, and a CI greater than one indicates antagonism. Further, strong synergism is achieved when the CI value falls below 0.3.
(§5) Graphs representing values of combination index (CI) versus Fractional effect (Fa) known as Fa-CI plots were generated and synergy was evaluated. Drug synergy was statistically defined by CI values less than 1, antagonism by CI>1 and additive effect by CI equal to 1.
Graphs representing values of combination index (CI) versus Fractional effect (Fa) known as Fa-CI plots were generated and synergy was evaluated. Drug synergy was statistically defined by CI values less than 1, antagonism by CI>1 and additive effect by CI equal to 1. […]
Cell viability was measured via ATP content using CellTiter-Glo® (Promega).
as §2, with “Proliferation studies” for “Studies”, “MOLM-13, MV4-11 and SKM-1” for “MLL-rearranged”, “cancer cell killing” for “anti-proliferative”, “IC50 values” for “IC50”, “correspond” for “corresponded”, “well. […]” for “well.”
Compounds evaluated for synergy in the co-treatment phase were tested in a range which was bracketed around the IC50's.

MV4-11 (MLL-AF4) = assay: as above; settings: for Combination with Compound A2, MV4-11 (MLL-AF4): 7 Day Cotreatment Model, Table 4; for Combination of Compound A2 and anti-cancer agent, MV4-11: 7 Day Cotreatment; for Combination with Compound A2, MV4-111 MLL-AF4: Table 2, Example 3
Experimental: as §1, §2, §3, §4, §5, §5
The HP-D300 digital dispenser (Tecan) was used to dispense compounds in a combinatorial matrix. […] Cell viability was measured via ATP content using CellTiter-Glo® (Promega).
Viability was determined using CellTiter-Glo® (Promega).
as §2, with “Proliferation studies” for “Studies”, “MOLM-13, MV4-11 and SKM-1” for “MLL-rearranged”, “cancer cell killing” for “anti-proliferative”, “IC50 values” for “IC50”, “correspond” for “corresponded”
These studies were performed to evaluate both the combinatorial effect of compounds on cell killing and the durability of the effect by washing out one of the agents.
Compounds evaluated for synergy in the co-treatment phase were tested in a range which was bracketed around the IC50's. The compounds were plated to a 96 well plate in a matrix format which includes increasing concentrations of each drug in the combination in a constant ratio, in addition to the effect of each compound alone in the study.

SKM-1 cells = assay: EPZ-5676 300 nM 7-day pre-treatment, then second compound 72 hours, ATPLite, IC50 shift (Example 6); settings: SKM-1 cells; 300 nM EPZ-5676 or DMSO 7-day pre-treatment, then 2nd compound 72 hours, ATPLite; Synergy = IC50 of 2nd compound decreased by 2-fold or more vs DMSO control
Experimental: Cells were then equilibrated in incubators for 24 hours before treatment with a second compound. Treated assay plates were incubated with a second compound for 72 hours. After this time, plates were developed for endpoint analysis using ATPLite to measure ATP content, which is used as an indicator of cell viability.
“N/D” means that IC50 of the second compound could not be determined for both conditions.

[1] = 7 Day Cotreatment Model, Table 4

| SMILES | Combination with Compound A2, MOLM-13 (MLL-AF9) (MOLM-13 (MLL-AF9); [1]) | Combination with Compound A2, MV4-11 (MLL-AF4) (MV4-11 (MLL-AF4)) | SKM-1 (summary of combination study: EPZ-5676 + 2nd compound) (SKM-1 cells) | further results |
| --- | --- | --- | --- | --- |
| CCCc1cc2c(N3CCN(C4=NCC(C)(C)S4)CC3)ncnc2s1 [Menin-MLL inhibitor MI-2] | Synergy (Drug synergy was statistically defined by CI values less than 1) | Synergy (Drug synergy was statistically defined by CI values less than 1) | – | – |
| CC(C)(C)c1cc(NC(=O)Nc2ccc(-c3cn4c(n3)sc3cc(OCCN5CCOCC5)ccc34)cc2)no1 [Quizartinib] | Synergy (Drug synergy was statistically defined by CI values less than 1) | – | – | Combination of Compound A2 and anti-cancer agent, MV4-11 (MV4-11 (MLL-AF4)): synergy |
| NC(=O)NO [Hydroxyurea] | Synergy (Drug synergy was statistically defined by CI values less than 1) | Synergy (Drug synergy was statistically defined by CI values less than 1) | – | – |
| C#Cc1cccc(Nc2ncnc3cc(OCCOC)c(OCCOC)cc23)c1 [Erlotinib Hydrochloride] | – | – | Synergy (considered synergistic if the IC50 value of the second compound decreased by 2-fold or more when EPZ-5676 was added as compared to the DMSO control) | – |
| COc1ccc(-c2ccc3c(N4CCOC[C@@H]4C)nc(N4CCOC[C@@H]4C)nc3n2)cc1CO [AZD 8055] | – | – | Synergy (considered synergistic if the IC50 value of the second compound decreased by 2-fold or more when EPZ-5676 was added as compared to the DMSO control) | – |
| COc1ccc(Cc2nccc3cc(OC)c(OC)cc23)cc1OC [Papaverine Hydrochloride] | – | – | Synergy (considered synergistic if the IC50 value of the second compound decreased by 2-fold or more when EPZ-5676 was added as compared to the DMSO control) | – |
| N#Cc1c(C2CCNCC2)cc(-c2c(O)cccc2OCC2CC2)nc1N [IKK-2 Inhibitor VIII] | – | – | Synergy (considered synergistic if the IC50 value of the second compound decreased by 2-fold or more when EPZ-5676 was added as compared to the DMSO control) | – |
| C[C@H]1C[C@@H]2[C@H]([C@@H](O)C[C@@]3(C)[C@H]2CC[C@]3(O)C(=O)CO)[C@@]2(C)C=CC(=O)C=C12 [Methylprednisolone] | – | – | Synergy (considered synergistic if the IC50 value of the second compound decreased by 2-fold or more when EPZ-5676 was added as compared to the DMSO control) | – |
| CN(C)CC[C@H](CSc1ccccc1)Nc1ccc(S(=O)(=O)NC(=O)c2ccc(N3CCN(Cc4ccccc4-c4ccc(Cl)cc4)CC3)cc2)cc1[N+](=O)[O-] [ABT-737] | – | – | Synergy (considered synergistic if the IC50 value of the second compound decreased by 2-fold or more when EPZ-5676 was added as compared to the DMSO control) | – |
| CC(=O)c1c(C)c2cnc(Nc3ccc(N4CCNCC4)cn3)nc2n(C2CCCC2)c1=O [Palbociclib] | Synergy (Drug synergy was statistically defined by CI values less than 1) | Synergy (Drug synergy was statistically defined by CI values less than 1) | – | – |
| C=C[C@@]1(C)CC(=O)[C@]2(O)[C@@]3(C)[C@@H](O)CCC(C)(C)[C@@H]3[C@H](OC(=O)CCN(C)C)[C@H](OC(C)=O)[C@@]2(C)O1.Cl [NKH 477] | – | – | Synergy (considered synergistic if the IC50 value of the second compound decreased by 2-fold or more when EPZ-5676 was added as compared to the DMSO control) | – |
| CC1(C)CCC(CN2CCN(c3ccc(C(=O)NS(=O)(=O)c4ccc(NCC5CCOCC5)c([N+](=O)[O-])c4)c(Oc4cnc5[nH]ccc5c4)c3)CC2)=C(c2ccc(Cl)cc2)C1 [ABT-199] | Additive --> Synergy | Synergy (Drug synergy was statistically defined by CI values less than 1) | – | – |
| CC(C)CC(=O)Nc1[nH]nc2c1CN(C(=O)C1CCN(C)CC1)C2(C)C [PHA-793887] | – | – | Synergy (considered synergistic if the IC50 value of the second compound decreased by 2-fold or more when EPZ-5676 was added as compared to the DMSO control) | – |
| CC(C)C[C@H](NC(=O)CNC(=O)c1cc(Cl)ccc1Cl)B(O)O [MLN2238] | – | – | Synergy (considered synergistic if the IC50 value of the second compound decreased by 2-fold or more when EPZ-5676 was added as compared to the DMSO control) | – |
| CC[C@]1(O)C[C@H]2CN(CCc3c([nH]c4ccccc34)[C@@](C(=O)OC)(c3cc4c(cc3OC)N(C=O)[C@H]3[C@@](O)(C(=O)OC)[C@H](OC(C)=O)[C@]5(CC)C=CCN6CC[C@]43[C@@H]65)C2)C1 [Vincristine] | Additive (additive effect by CI equal to 1) | Additive (additive effect by CI equal to 1) | – | – |
| Nc1ncn([C@H]2C[C@H](O)[C@@H](CO)O2)c(=O)n1 [Decitabine] | Synergy (Drug synergy was statistically defined by CI values less than 1) | Synergy (Drug synergy was statistically defined by CI values less than 1) | – | Combination with Compound A2, MOLM-13 (MLL-AF9) (MOLM-13 (MLL-AF9); Table 2, Example 3): Synergy (Drug synergy was statistically defined by CI values less than 1); Combination with Compound A2, MV4-111 MLL-AF4 (MV4-11 (MLL-AF4)): Synergy (Drug synergy was statistically defined by CI values less than 1) |
| Cc1[nH]c2ccccc2c1CCNCc1ccc(/C=C/C(=O)NO)cc1 [Panobinostat] | Synergy (Drug synergy was statistically defined by CI values less than 1) | Antagonistic (antagonism by CI>1) | – | – |
| O=C(CCCCCCC(=O)Nc1ccccc1)NO [Vorinostat] | Additive/Synergy | Antagonistic (antagonism by CI>1) | – | – |
| O=C1c2c(O)ccc(O)c2C(=O)c2c(NCCNCCO)ccc(NCCNCCO)c21 [Mitoxantrone] | Synergy (Drug synergy was statistically defined by CI values less than 1) | Synergy (Drug synergy was statistically defined by CI values less than 1) | – | Combination of Compound A2 and anti-cancer agent, MV4-11 (MV4-11 (MLL-AF4)): Synergy (A combination index less than one indicates synergy) |
| CN(Cc1cnc2nc(N)nc(N)c2n1)c1ccc(C(=O)N[C@@H](CCC(=O)O)C(=O)O)cc1 [Methotrexate] | Additive (additive effect by CI equal to 1) | Additive (additive effect by CI equal to 1) | – | – |
| Cc1sc2c(c1C)C(c1ccc(Cl)cc1)=N[C@@H](CC(=O)OC(C)(C)C)c1nnc(C)n1-2 [JQ1] | Additive (additive effect by CI equal to 1) | Additive (additive effect by CI equal to 1) | – | Combination with Compound A2, MOLM-13 (MLL-AF9) (MOLM-13 (MLL-AF9); Table 2, Example 3): Additive (additive effect by CI equal to 1); Combination with Compound A2, MV4-111 MLL-AF4 (MV4-11 (MLL-AF4)): Additive (additive effect by CI equal to 1) |
| S=c1nc[nH]c2nc[nH]c12 [Mercaptopurine] | Additive --> Synergy | Additive (additive effect by CI equal to 1) | – | – |
| N[C@@H]1C[C@H]1c1ccccc1 (racemic) [Tranylcypromine] | Strong Synergy | Synergy (Drug synergy was statistically defined by CI values less than 1) | – | Combination of Compound A2 and anti-cancer agent, MOLM-13 (MOLM-13 (MLL-AF9); 7 Day Cotreatment): synergy; Combination of Compound A2 and anti-cancer agent, MV4-11 (MV4-11 (MLL-AF4)): synergy |
